Data set [1] relates to HTLV-I-infected T-lymph cell lines (MT-2, MT-4, HUT-102, ED-40515 (−)). The experiment in a line: Measurement of proliferation potency of HTLV-I-infected T-lymph cell lines (WST-8 cell survival rate). The format is cell-based. The following applies: for effect on the growth of HTLV-I-infected T-lymph cell lines: 10, 5, 2.5 μM, FIG. 3; for effect on the growth of HTLV-I-infected T-lymph cell lines / growth of HTLV-I-infected T-lymph cell lines (cell survival rate): WST-8; for growth of HTLV-I-infected T-lymph cell lines (cell survival rate): 10, 5, 2.5, 1.25, 0.625 μM, FIG. 1. How it is done: (§1) After adding “WST-8” (manufactured by Wako Pure Chemical Industries, Ltd.) in an amount of 5 μL/well as a coloring substrate, cells were cultured for four hours at 37° C.
(§2) Cell survival rate (%)=[1−(A−B)/A]×100 [Formula 1]
(§3) A: Absorbance without agent treatment
(§4) A: Absorbance with agent treatment

For data set [2], the system named is EBV-infected B cell lines (Raji, Daudi, B95-8/BJAB, B95-8/Ramos, LCL-Ka, LCL-Ku). Put plainly: Measurement of proliferation potency of EBV-infected B cell lines (WST-8 cell survival rate). To be noted: 24 hours; for growth of EBV-infected BL cell lines (cell survival rate): 10, 5, 2.5, 1.25, 0.625 μM, WST-8, FIG. 2. The format is cell-based. How it is done:
as §1, §2, §3, §4
(Formazan colour is commonly taken as a measure of viable cells.)

Data set [3] relates to PBMC (leukemia cells) of adult T-cell-leukemia (ATL) patients. Put plainly: Measurement of proliferation potency of peripheral blood mononuclear cells of ATL patients (WST-8). The format is cell-based, human. To be noted: 24 hours; for growth of leukemia cells in ATL patients (PBMC survival rate): five ATL patients, fucoxanthin 0.625-10 μM, fucoxanthinol 0.625-2.5 μM, FIG. 4.

Data set [4] concerns HTLV-I-infected cell lines (MT-2, MT-4, HUT-102, ED-40515 (−)). Put plainly: Measurement of apoptosis of HTLV-I-infected cell lines (annexin V, flow cytometry). The format is cell-based. How it is done: After 24 hours, the cells were collected and dyed with annexin V to measure the rate (%) of apoptosis-positive cells using a flow sight meter.
On the technique in general: A flow cytometer gives signals particle by particle.

Data set [5] concerns PBMC of a healthy person. Put plainly: Measurement of proliferation potency of peripheral blood mononuclear cells of a healthy person (WST-8). To be noted: for action on normal cells: normal cells versus HTLV-1-infected cells and ATL cells. How it is done:
First, the peripheral blood mononuclear cells (PBMC) were separated by the Ficoll centrifugal specific gravity method. The cells were diluted with an RPMI 1640 culture medium containing 10% fetal bovine serum to 2×10^6 cells/mL and spread over a 96-well plate in an amount of 1×10^5 cells/well.
Next, 50 μL/well of fucoxanthin and fucoxanthinol were added to make final concentrations of 10, 5, 2.5, 1.25, and 0.625 μM (fucoxanthin) or 2.5, 1.25 and 0.625 μM (fucoxanthinol), followed by incubation at 37° C. for 24 hours. After adding WST-8 in an amount of 5 μL/well, the cells were cultured for four hours at 37° C. After culturing, absorbance at a wavelength of 450 nm was measured by a microplate reader to determine the survival rate of the cells using the above formula.

In data set [6] the test system is HTLV-I-infected cell lines (MT-2, MT-4, HUT-102, ED-40515 (−)). The experiment in a line: Measurement of cell-cycle of HTLV-I-infected cell lines (propidium iodide, flow cytometry). The format is cell-based. The following applies: 5 μM, 24 hours; FIG. 5. On the procedure:
1×10^6 cells of HTLV-I-infected cell lines (MT-2, MT-4, HUT-102, ED-40515 (−)) were scattered over a cell culture plate, and 5 μM of fucoxanthin was added, followed by incubation at 37° C. for 24 hours. After 24 hours, the cells were collected and dyed with propidium iodide to measure the DNA content using a flow sight meter. The cell cycle of each cell was judged by calculating the distribution of the cell group of each cell cycle from the result of the DNA content.

The mark [7] stands for this setting: HTLV-1-infected cells and ATL cells.

4 molecules from patent US20100197782A1, “THERAPEUTIC AGENT FOR VIRUS-ASSOCIATED MALIGNANCY” (priority 2006, published 2010) can be followed below.

On to `CC1=C(/C=C/C(C)=C/C=C/C(C)=C/C=C/C=C(C)/C=C/C=C(C)/C=C/C2=C(C)CCCC2(C)C)C(C)(C)CCC1` [β-carotene, reference compound], for which, in data set [1] (24 hours), the “effect on the growth of HTLV-I-infected T-lymph cell lines” value is given as “only a slight effect”.

As to `C\C(C=C=C1C(C)(C)C[C@H](O)C[C@@]1(C)O)=C/C=C/C(C)=C/C=C/C=C(C)/C=C/C=C(\C)C(=O)C[C@@]12O[C@]1(C)C[C@@H](O)CC2(C)C` [fucoxanthinol], in data set [2], the “growth of EBV-infected BL cell lines (cell survival rate)” value was “concentration-dependently suppressed the growth”. Besides, the “capability to inhibit growth compared with fucoxanthin” value in data set [2] (EBV-infected BL cell lines) is listed as “significantly higher than that of fucoxanthin”. In addition, the “effect on growth potency compared with fucoxanthin” value in data set [3] (PBMC of ATL patients) is “higher than that of fucoxanthin”. Further, the “growth of leukemia cells in ATL patients (PBMC survival rate)” value in data set [3] is “concentration-dependently suppressed the growth”. Further, in data set [4] (setting [7]), the concentration causing apoptosis entry is “one micromole or less” and the “concentration causing apoptosis compared with β-carotene or astaxanthin” value was “significantly lower than the corresponding concentration of β-carotene or astaxanthin”. For the same molecule, in data set [4] (MT-2, 24 hours), the “apoptosis-inducing effect compared with fucoxanthin” value is reported as “stronger than that of fucoxanthin”. Moreover, in data set [4] (MT-2, 10, 5, 2.5, 1.25, 0.625 μM, 24 hours, FIG. 8), the “apoptosis of MT-2 (annexin V positive cells)” value is “induces apoptosis in MT-2”. Further, the “toxicity against the PBMC of the healthy person” value in data set [5] (fucoxanthin 0.625-10 μM, fucoxanthinol 0.625-2.5 μM, 24 hours, FIG. 4) is “no toxicity”. For the same molecule, in data set [5], the “action on normal cells” value is recorded as “substantially do not act on normal cells”. Moreover, in data set [1] (24 hours), the “growth of HTLV-I-infected T-lymph cell lines (cell survival rate)” value is on record as “concentration-dependently suppressed the growth”. Besides, in data set [1] (HTLV-1-infected cells and ATL cells, at a concentration of one micromole or less), the “survival rate of the cells” value is given as “almost zero”. Besides, the “capability to inhibit growth compared with fucoxanthin” value in data set [1] (HTLV-I-infected T-lymph cell lines, 24 hours) is “significantly higher than that of fucoxanthin”.

`CC(=O)O[C@H]1CC(C)(C)C(=C=C/C(C)=C/C=C/C(C)=C/C=C/C=C(C)/C=C/C=C(\C)C(=O)C[C@@]23O[C@]2(C)C[C@@H](O)CC3(C)C)[C@](C)(O)C1` [fucoxanthin]: in data set [2], the “growth of EBV-infected BL cell lines (cell survival rate)” value is listed as “concentration-dependently suppressed the growth”. The “growth of leukemia cells in ATL patients (PBMC survival rate)” value in data set [3] is reported as “concentration-dependently suppressed the growth”. For the same molecule, the “concentration causing apoptosis compared with β-carotene or astaxanthin” value in data set [4] (setting [7]) is given as “significantly lower than the corresponding concentration of β-carotene or astaxanthin”. Besides, in data set [4] (MT-2, MT-4, HUT-102, ED-40515 (−), 24 hours, FIG. 6), the “apoptosis of HTLV-I-infected cell lines (annexin V positive cells)” value was “induces apoptosis in all HTLV-I infected cell lines”. Besides, the “concentration dependence of apoptosis of MT-2” value in data set [4] (MT-2, 10, 5, 2.5 μM, 24 hours, FIG. 7) is listed as “concentration dependent”. Further, the “action on normal cells” value in data set [5] is “substantially do not act on normal cells”. Besides, the “effect on the cell cycle of HTLV-I-infected cell lines” value in data set [6] is “suspends the cell cycle of all HTLV-I-infected cell lines at the G1 phase”. Also, the “growth of HTLV-I-infected T-lymph cell lines (cell survival rate)” value in data set [1] (24 hours) is “concentration-dependently suppressed the growth”.

As to `CC1=C(/C=C/C(C)=C/C=C/C(C)=C/C=C/C=C(C)/C=C/C=C(C)/C=C/C2=C(C)C(=O)[C@@H](O)CC2(C)C)C(C)(C)C[C@H](O)C1=O` [astaxanthin, reference compound], in data set [1] (24 hours), the “effect on the growth of HTLV-I-infected T-lymph cell lines” value was “only a slight effect”.
